Reference: ChEMBL document CHEMBL1944631, “Solid-state NMR analysis of calcium and d-mannose binding of BMY-28864, a water-soluble analogue of pradimicin A” (Bioorg Med Chem Lett, 2012)
In brackets after ≈: the same amount, converted by molar mass. Activity calls are given as the source filed them. The calls are words filed in the database; no cut-off is given here.

What was measured:
[1] = Solubility of the compound in phosphate buffered saline at pH 7.4; assay type: physicochemical
[2] = Binding affinity to methyl alpha-D-mannopyranoside at -135 ppm by Solid-state CP/MAS 113Cd NMR spectroscopy
[3] = Binding affinity to [13C6]-methyl alpha-D-mannopyranoside by 2-DDARR in presence of Ca2+ relative to TMS
[4] = Binding affinity to methyl alpha-D-mannopyranoside at -129 ppm by Solid-state CP/MAS 113Cd NMR spectroscopy

| solubility [1] [µg/mL] | Activity [2] | Activity [3] | Activity [4] | Compound |
| --- | --- | --- | --- | --- |
| 260 (≈ 303 µM) | – | – | – | CN[C@@H]1[C@H](O[C@@H]2OC[C@@H](O)[C@H](O)[C@H]2O)[C@@H](O)[C@H](O[C@H]2c3cc(C)c(C(=O)N[C@H](CO)C(=O)O)c(O)c3-c3c(cc4c(c3O)C(=O)c3cc(OC)cc(O)c3C4=O)[C@@H]2O)O[C@@H]1C |
| 20 (≈ 23.8 µM) | Active | Active | – | CN[C@@H]1[C@H](O[C@@H]2OC[C@@H](O)[C@H](O)[C@H]2O)[C@@H](O)[C@H](O[C@H]2c3cc(C)c(C(=O)N[C@H](C)C(=O)O)c(O)c3-c3c(cc4c(c3O)C(=O)c3cc(OC)cc(O)c3C4=O)[C@@H]2O)O[C@@H]1C [PRADIMICIN A] |
| > 20000 | – | Active | Active | COc1cc(O)c2c(c1)C(=O)c1c(cc3c(c1O)-c1c(cc(C)c(C(=O)N[C@H](CO)C(=O)O)c1O)[C@H](O[C@@H]1O[C@H](C)[C@H](N(C)C)[C@H](O[C@@H]4OC[C@@H](O)[C@H](O)[C@H]4O)[C@H]1O)[C@H]3O)C2=O |
